Paper PMC6704710, “Preclinical evaluation of 3D185, a novel potent inhibitor of FGFR1/2/3 and CSF-1R, in FGFR-dependent and macrophage-dominant cancer models” (Journal of Experimental & Clinical Cancer Research : CR, 2019)

Experiments:
Experiment in all cases: Eurofins kinase panel
Format in all cases: biochemical
Details in all cases: read-out: Inhibition rate (%)
[1] = biological target: T1, B-Raf(h) (Homo sapiens, UniProt P15056)
T1 construct: purchased Eurofins (KinaseProfiler)

[2] = biological target: T2, Lck(h) (Homo sapiens, UniProt P06239)
T2 construct: purchased Eurofins (KinaseProfiler)
T2 sequence (P06239 whole entry): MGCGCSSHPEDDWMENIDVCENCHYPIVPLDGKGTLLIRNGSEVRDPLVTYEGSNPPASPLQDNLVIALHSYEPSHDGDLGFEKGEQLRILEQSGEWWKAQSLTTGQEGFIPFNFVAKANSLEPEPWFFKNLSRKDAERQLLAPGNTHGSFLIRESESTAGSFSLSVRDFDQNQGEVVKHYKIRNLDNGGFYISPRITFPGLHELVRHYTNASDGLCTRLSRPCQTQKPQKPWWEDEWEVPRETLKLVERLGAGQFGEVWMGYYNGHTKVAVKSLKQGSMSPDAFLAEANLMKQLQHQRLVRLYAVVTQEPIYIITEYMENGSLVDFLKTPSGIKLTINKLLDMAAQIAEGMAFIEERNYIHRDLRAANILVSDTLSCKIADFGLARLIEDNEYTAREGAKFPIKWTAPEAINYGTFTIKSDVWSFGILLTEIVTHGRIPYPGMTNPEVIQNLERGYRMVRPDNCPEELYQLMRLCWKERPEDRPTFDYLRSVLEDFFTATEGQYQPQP

[3] = biological target: T3, CSK(h) (Homo sapiens, UniProt P41240)
T3 construct: purchased Eurofins (KinaseProfiler)
T3 sequence (P41240 whole entry): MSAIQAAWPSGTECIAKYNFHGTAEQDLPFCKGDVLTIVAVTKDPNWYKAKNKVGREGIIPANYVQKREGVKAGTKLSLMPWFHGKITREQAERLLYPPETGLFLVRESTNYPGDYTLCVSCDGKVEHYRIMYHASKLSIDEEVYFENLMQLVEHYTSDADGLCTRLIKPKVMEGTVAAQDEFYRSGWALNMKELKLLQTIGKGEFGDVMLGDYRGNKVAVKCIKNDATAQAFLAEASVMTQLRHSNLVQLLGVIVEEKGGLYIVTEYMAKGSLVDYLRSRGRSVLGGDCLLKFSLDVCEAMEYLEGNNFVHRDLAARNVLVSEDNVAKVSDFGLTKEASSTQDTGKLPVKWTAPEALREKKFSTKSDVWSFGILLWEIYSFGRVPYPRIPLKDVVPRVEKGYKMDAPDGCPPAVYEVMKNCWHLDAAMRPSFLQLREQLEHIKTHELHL

[4] = biological target: T4, Tec(h) activated (Homo sapiens, UniProt P42680)
T4 construct: purchased Eurofins (KinaseProfiler)
T4 sequence (P42680 1-631): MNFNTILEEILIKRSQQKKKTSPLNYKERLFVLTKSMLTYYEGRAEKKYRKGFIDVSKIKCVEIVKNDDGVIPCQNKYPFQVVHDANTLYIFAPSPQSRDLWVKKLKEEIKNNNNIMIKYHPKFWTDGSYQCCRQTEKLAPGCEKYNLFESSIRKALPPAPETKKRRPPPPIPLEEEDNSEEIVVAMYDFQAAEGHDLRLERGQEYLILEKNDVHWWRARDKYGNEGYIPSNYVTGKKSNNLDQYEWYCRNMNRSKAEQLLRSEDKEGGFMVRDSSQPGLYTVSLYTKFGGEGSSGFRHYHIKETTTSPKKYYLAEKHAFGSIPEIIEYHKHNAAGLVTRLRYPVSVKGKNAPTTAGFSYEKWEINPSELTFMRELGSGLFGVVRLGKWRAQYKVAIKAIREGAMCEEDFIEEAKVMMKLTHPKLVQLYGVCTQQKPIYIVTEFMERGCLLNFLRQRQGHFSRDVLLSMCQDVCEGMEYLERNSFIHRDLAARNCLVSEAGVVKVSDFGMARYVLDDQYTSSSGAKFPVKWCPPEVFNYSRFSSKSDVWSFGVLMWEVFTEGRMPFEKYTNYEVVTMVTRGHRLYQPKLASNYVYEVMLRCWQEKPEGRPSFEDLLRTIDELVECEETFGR

[5] = biological target: T5, EphA1(h) (Homo sapiens, UniProt P21709)
T5 construct: purchased Eurofins (KinaseProfiler)
T5 sequence (P21709 26-976): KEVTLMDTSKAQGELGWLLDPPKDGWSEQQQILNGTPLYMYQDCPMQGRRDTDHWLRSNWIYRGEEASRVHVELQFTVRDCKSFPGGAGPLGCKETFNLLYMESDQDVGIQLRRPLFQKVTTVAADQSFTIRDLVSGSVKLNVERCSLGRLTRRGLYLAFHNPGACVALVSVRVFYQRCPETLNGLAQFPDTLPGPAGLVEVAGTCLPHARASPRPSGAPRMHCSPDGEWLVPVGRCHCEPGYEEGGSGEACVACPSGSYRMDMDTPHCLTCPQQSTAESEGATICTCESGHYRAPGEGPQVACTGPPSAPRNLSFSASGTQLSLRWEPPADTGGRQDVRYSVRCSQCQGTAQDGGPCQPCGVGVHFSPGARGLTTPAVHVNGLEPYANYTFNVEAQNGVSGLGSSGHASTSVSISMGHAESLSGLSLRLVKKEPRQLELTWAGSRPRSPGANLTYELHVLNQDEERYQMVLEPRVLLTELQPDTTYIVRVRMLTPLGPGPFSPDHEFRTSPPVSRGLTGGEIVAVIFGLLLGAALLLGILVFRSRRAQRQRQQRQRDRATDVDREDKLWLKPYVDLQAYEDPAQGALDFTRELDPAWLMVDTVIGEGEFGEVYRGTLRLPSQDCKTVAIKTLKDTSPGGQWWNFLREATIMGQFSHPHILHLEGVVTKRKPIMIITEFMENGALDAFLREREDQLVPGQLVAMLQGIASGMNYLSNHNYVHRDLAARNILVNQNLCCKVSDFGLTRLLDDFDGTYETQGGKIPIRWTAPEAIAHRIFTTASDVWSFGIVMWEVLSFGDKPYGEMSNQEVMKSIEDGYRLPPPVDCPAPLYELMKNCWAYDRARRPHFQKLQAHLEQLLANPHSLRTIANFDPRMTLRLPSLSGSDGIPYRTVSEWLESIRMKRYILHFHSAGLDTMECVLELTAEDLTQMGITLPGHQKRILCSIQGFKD

[6] = biological target: T6, c-RAF(h) (Homo sapiens, UniProt P04049)
T6 construct: purchased Eurofins (KinaseProfiler)
T6 sequence (P04049 whole entry): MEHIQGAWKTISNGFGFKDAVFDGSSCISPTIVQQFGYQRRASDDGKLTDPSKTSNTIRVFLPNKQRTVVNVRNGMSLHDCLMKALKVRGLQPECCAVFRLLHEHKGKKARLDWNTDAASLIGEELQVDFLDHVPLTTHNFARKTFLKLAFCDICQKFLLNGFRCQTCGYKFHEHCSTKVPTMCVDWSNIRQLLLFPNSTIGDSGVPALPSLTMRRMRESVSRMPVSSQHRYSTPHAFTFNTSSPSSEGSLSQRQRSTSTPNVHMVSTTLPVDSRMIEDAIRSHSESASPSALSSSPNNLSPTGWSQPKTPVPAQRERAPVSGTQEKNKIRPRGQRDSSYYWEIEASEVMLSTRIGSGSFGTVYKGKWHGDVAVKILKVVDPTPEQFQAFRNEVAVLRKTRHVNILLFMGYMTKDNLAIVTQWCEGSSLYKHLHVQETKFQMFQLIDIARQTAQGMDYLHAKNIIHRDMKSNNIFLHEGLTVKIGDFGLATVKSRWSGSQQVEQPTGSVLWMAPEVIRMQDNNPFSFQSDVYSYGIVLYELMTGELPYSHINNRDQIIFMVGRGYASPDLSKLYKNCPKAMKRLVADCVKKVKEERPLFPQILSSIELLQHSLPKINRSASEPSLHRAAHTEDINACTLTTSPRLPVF

[7] = biological target: T7, PAK6(h) (Homo sapiens, UniProt Q9NQU5)
T7 construct: purchased Eurofins (KinaseProfiler)
T7 sequence (Q9NQU5 whole entry): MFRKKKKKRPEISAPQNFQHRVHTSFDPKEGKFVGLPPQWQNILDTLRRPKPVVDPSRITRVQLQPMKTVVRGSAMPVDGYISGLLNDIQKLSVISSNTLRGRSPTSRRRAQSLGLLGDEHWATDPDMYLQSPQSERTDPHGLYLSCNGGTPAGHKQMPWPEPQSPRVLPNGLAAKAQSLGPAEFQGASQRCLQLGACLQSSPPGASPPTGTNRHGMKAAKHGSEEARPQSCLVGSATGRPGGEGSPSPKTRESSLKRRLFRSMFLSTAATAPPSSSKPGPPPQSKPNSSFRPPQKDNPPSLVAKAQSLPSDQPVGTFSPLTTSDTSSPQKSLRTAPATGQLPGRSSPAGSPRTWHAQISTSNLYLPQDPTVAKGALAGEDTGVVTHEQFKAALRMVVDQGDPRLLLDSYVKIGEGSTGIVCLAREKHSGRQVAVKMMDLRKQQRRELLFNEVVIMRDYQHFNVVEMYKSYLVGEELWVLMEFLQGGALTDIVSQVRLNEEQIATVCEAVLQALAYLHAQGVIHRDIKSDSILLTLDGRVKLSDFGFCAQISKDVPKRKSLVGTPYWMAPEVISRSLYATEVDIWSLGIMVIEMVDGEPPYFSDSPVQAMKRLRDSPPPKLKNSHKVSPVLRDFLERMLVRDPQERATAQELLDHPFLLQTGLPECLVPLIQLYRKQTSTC

[8] = biological target: T8, BRK(h) (Homo sapiens, UniProt Q13882)
T8 construct: purchased Eurofins (KinaseProfiler)
T8 sequence (Q13882 whole entry): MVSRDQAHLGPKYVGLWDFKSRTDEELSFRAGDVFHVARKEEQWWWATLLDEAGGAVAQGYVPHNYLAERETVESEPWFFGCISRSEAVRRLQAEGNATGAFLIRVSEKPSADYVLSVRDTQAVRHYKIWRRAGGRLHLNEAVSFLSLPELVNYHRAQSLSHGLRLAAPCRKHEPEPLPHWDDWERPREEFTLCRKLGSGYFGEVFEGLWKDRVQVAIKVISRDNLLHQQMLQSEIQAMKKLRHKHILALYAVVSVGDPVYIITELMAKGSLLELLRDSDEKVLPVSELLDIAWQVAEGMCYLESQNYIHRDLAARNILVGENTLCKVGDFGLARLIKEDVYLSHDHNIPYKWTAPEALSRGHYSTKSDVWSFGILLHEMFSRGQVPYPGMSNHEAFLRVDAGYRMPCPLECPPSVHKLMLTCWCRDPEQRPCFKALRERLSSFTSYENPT

T1 sequence (P15056 whole entry): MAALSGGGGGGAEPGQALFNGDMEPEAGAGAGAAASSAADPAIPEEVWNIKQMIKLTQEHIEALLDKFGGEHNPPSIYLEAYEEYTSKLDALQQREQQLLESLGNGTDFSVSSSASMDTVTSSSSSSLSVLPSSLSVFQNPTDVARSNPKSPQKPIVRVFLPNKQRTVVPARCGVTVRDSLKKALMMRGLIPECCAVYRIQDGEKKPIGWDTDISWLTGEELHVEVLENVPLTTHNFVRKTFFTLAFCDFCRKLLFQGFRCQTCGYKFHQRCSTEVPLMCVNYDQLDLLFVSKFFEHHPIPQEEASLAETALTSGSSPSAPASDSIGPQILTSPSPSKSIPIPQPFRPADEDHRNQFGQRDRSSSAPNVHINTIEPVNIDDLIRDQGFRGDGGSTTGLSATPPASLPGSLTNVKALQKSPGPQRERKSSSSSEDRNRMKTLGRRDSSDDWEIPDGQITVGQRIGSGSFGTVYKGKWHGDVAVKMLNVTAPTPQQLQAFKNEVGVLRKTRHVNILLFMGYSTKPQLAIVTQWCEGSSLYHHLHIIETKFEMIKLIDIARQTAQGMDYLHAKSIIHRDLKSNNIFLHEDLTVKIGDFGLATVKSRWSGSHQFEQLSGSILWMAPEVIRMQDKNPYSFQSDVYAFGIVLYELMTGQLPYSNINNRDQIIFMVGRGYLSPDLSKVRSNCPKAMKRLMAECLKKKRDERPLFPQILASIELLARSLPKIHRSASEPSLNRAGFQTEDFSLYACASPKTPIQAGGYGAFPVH

For `COc1cc(OC)c(Cl)c(-c2ccc3c(NC(=O)c4ccc(N5CCNC(C)(C)C5)cc4)n[nH]c3n2)c1Cl` [3D185], which inhibition at 0.01 µM ([1]; 10 nM) is on record?
Its inhibition at 0.01 µM is -4%.

What about the inhibition at 0.1 µM ([1]; 100 nM) of the same compound?
Its inhibition at 0.1 µM is -5%.

And the inhibition at 1 µM ([1]; 1000 nM)?
Its inhibition at 1 µM is 5%.

What about the inhibition at 0.01 µM ([2]; 10 nM) of the same compound?
Its inhibition at 0.01 µM is 22%.

And the inhibition at 0.1 µM ([2]; 100 nM)?
The inhibition at 0.1 µM was 60%.

What about the inhibition at 1 µM ([2]; 1000 nM) of the same compound?
The inhibition at 1 µM was 94%.

And the inhibition at 0.01 µM ([3]; 10 nM)?
The inhibition at 0.01 µM was 8%.

And the inhibition at 0.1 µM ([3]; 100 nM)?
The inhibition at 0.1 µM was 23%.

What about the inhibition at 1 µM ([3]; 1000 nM) of the same compound?
The inhibition at 1 µM was 63%.

And the inhibition at 0.01 µM ([4]; 10 nM)?
The inhibition at 0.01 µM was 3%.

And the inhibition at 0.1 µM ([4]; 100 nM)?
Its inhibition at 0.1 µM is 9%.

And the inhibition at 1 µM ([4]; 1000 nM)?
Its inhibition at 1 µM is 23%.

What about the inhibition at 0.01 µM ([5]; 10 nM) of the same compound?
The inhibition at 0.01 µM was 0%.

And the inhibition at 0.1 µM ([5]; 100 nM)?
Its inhibition at 0.1 µM is -14%.

And the inhibition at 1 µM ([5]; 1000 nM)?
Its inhibition at 1 µM is -6%.

What about the inhibition at 0.01 µM ([6]; 10 nM) of the same compound?
The inhibition at 0.01 µM was 13%.

What about the inhibition at 0.1 µM ([6]; 100 nM) of the same compound?
The inhibition at 0.1 µM was 14%.

And the inhibition at 1 µM ([6]; 1000 nM)?
Its inhibition at 1 µM is 5%.

What about the inhibition at 0.01 µM ([7]; 10 nM) of the same compound?
Its inhibition at 0.01 µM is -3%.

What about the inhibition at 0.1 µM ([7]; 100 nM) of the same compound?
The inhibition at 0.1 µM was 12%.

And the inhibition at 1 µM ([7]; 1000 nM)?
Its inhibition at 1 µM is -4%.

And the inhibition at 0.01 µM ([8]; 10 nM)?
The inhibition at 0.01 µM was -5%.

What about the inhibition at 0.1 µM ([8]; 100 nM) of the same compound?
The inhibition at 0.1 µM was 7%.

What about the inhibition at 1 µM ([8]; 1000 nM) of the same compound?
Its inhibition at 1 µM is 46%.
